Data reported in patent US20260262643A1, “HERBICIDAL BENZOXAZINES” (FMC CORPORATION, priority 2022, published 2026).

What was measured:
blackgrass [1] = assay: Test A preemergence; type: in vivo, Alopecurus myosuroides
Summary of the method: (§1)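 Greenhouse pot test, 10 days. Compound (non-phytotoxic solvent, surfactant) sprayed on soil at seeding or on seedlings at one- to two-leaf stage. Visual injury rated 0–100 against untreated plants.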

corn [2] = assay: Test A preemergence; type: in vivo, Zea mays
Summary of the method: as §1

foxtail, giant [3] = assay: Test A preemergence; type: in vivo, Setaria faberi
Summary of the method: as §1

goosegrass [4] = assay: Test A preemergence; type: in vivo, Eleusine indica
Summary of the method: as §1

kochia [5] = assay: Test A preemergence; type: in vivo, Bassia scoparia
Summary of the method: as §1

oat, wild [6] = assay: Test A preemergence; type: in vivo, Avena fatua
Summary of the method: as §1

pigweed, palmer [7] = assay: Test A preemergence; type: in vivo, Amaranthus palmeri
Summary of the method: as §1

ragweed [8] = assay: Test A preemergence; type: in vivo, Ambrosia artemisiifolia
Summary of the method: as §1

ryegrass, Italian [9] = assay: Test A preemergence; type: in vivo, Lolium multiflorum
Summary of the method: as §1

soybean [10] = assay: Test A preemergence; type: in vivo, Glycine max
Summary of the method: as §1

wheat [11] = assay: Test A preemergence; type: in vivo, Triticum aestivum
Summary of the method: as §1

blackgrass [12] = assay: Test A postemergence; type: in vivo, Alopecurus myosuroides
Summary of the method: as §1

corn [13] = assay: Test A postemergence; type: in vivo, Zea mays
Summary of the method: as §1

foxtail, giant [14] = assay: Test A postemergence; type: in vivo, Setaria faberi
Summary of the method: as §1

goosegrass [15] = assay: Test A postemergence; type: in vivo, Eleusine indica
Summary of the method: as §1

kochia [16] = assay: Test A postemergence; type: in vivo, Bassia scoparia
Summary of the method: as §1

oat, wild [17] = assay: Test A postemergence; type: in vivo, Avena fatua
Summary of the method: as §1

pigweed, palmer [18] = assay: Test A postemergence; type: in vivo, Amaranthus palmeri
Summary of the method: as §1

ragweed [19] = assay: Test A postemergence; type: in vivo, Ambrosia artemisiifolia
Summary of the method: as §1

ryegrass, Italian [20] = assay: Test A postemergence; type: in vivo, Lolium multiflorum
Summary of the method: as §1

soybean [21] = assay: Test A postemergence; type: in vivo, Glycine max
Summary of the method: as §1

wheat [22] = assay: Test A postemergence; type: in vivo, Triticum aestivum
Summary of the method: as §1

galium = assay: Test A postemergence; type: in vivo, Galium aparine
Summary of the method: as §1

barnyardgrass = assay: Test B flooded paddy test; type: in vivo, Echinochloa crus-galli; settings: 250 g ai/ha, Flood, 13 days, 0 to 100 scale (0 no effect, 100 complete control)
Summary of the method: (§2)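 Plants at the 2-leaf stage were flooded to 3 cm above the soil, and test compounds were applied directly into the paddy water, with that depth held throughout. After 13 days in a greenhouse, injury was rated visually against untreated controls on a 0–100 scale (100 = complete control).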

ducksalad = assay: Test B flooded paddy test; type: in vivo, Heteranthera limosa; settings: 250 g ai/ha, Flood, 13 days, 0 to 100 scale (0 no effect, 100 complete control)
Summary of the method: as §2

rice = assay: Test B flooded paddy test; type: in vivo, Oryza sativa; settings: 250 g ai/ha, Flood, 13 days, 0 to 100 scale (0 no effect, 100 complete control)
Summary of the method: as §2

sedge, umbrella = assay: Test B flooded paddy test; type: in vivo, Cyperus difformis; settings: 250 g ai/ha, Flood, 13 days, 0 to 100 scale (0 no effect, 100 complete control)
Summary of the method: as §2

[23] = 125 g ai/ha, visual injury after 10 days, 0 to 100 scale, 0 is no effect, 100 is complete control
[24] = 500 g ai/ha, 0 to 100 scale (0 no effect, 100 complete control), 10 days
[25] = 125 g ai/ha, postemergence, 10 days, visual injury, 0 to 100 scale (0 no effect, 100 complete control)
[26] = 500 g ai/ha, Postemergence, 0 to 100 scale

Cc1ccc(C(=O)N2CC(C)Oc3c(Cl)cccc32)cc1-n1cncn1 (stereo not drawn) [Compound 38]
0: Plant response rating, Kochia (kochia [5]; [23]) | Plant response rating, Ragweed (ragweed [8]; [23]) | Plant response rating, Ragweed (ragweed [8]; [24]) | Plant response rating, Soybean (soybean [10]; [23]) | Plant response rating, Wheat (wheat [11]; [23]) | Plant response rating, Blackgrass (blackgrass [12]; [25]) | Plant response rating, Oat, Wild (oat, wild [17]; [25]) | Plant response rating, Ragweed (ragweed [19]; [25]) | Plant response rating, Ragweed (ragweed [19]; [26]) | Plant response rating, Barnyardgrass (barnyardgrass) | Plant response rating, Ducksalad (ducksalad) | Plant response rating, Rice (rice) | Plant response rating, Sedge, Umbrella (sedge, umbrella)
10: Plant response rating, Oat, Wild (oat, wild [6]; [23]) | Plant response rating, Pigweed, Palmer (pigweed, palmer [7]; [23]) | Plant response rating, Wheat (wheat [11]; [24]) | Plant response rating, Ryegrass, Italian (ryegrass, Italian [20]; [25]) | Plant response rating, Wheat (wheat [22]; [25])
40: Plant response rating, Oat, Wild (oat, wild [17]; [26])
100: Plant response rating, Foxtail, Giant (foxtail, giant [3]; [24]) | Plant response rating, Goosegrass (goosegrass [4]; [24])
90: Plant response rating, Foxtail, Giant (foxtail, giant [14]; [26])
30: Plant response rating, Blackgrass (blackgrass [1]; [23]) | Plant response rating, Corn (corn [2]; [24]) | Plant response rating, Kochia (kochia [5]; [24]) | Plant response rating, Soybean (soybean [10]; [24]) | Plant response rating, Goosegrass (goosegrass [15]; [25]) | Plant response rating, Pigweed, Palmer (pigweed, palmer [18]; [25]) | Plant response rating, Galium (galium; [25])
70: Plant response rating, Blackgrass (blackgrass [1]; [24]) | Plant response rating, Foxtail, Giant (foxtail, giant [3]; [23]) | Plant response rating, Goosegrass (goosegrass [4]; [23]) | Plant response rating, Pigweed, Palmer (pigweed, palmer [7]; [24]) | Plant response rating, Ryegrass, Italian (ryegrass, Italian [9]; [23]) | Plant response rating, Blackgrass (blackgrass [12]; [26]) | Plant response rating, Goosegrass (goosegrass [15]; [26]) | Plant response rating, Wheat (wheat [22]; [26])
50: Plant response rating, Pigweed, Palmer (pigweed, palmer [18]; [26]) | Plant response rating, Soybean (soybean [21]; [26]) | Plant response rating, Galium (galium; [26])
80: Plant response rating, Ryegrass, Italian (ryegrass, Italian [9]; [24]) | Plant response rating, Corn (corn [13]; [26])
60: Plant response rating, Oat, Wild (oat, wild [6]; [24]) | Plant response rating, Foxtail, Giant (foxtail, giant [14]; [25]) | Plant response rating, Kochia (kochia [16]; [26]) | Plant response rating, Ryegrass, Italian (ryegrass, Italian [20]; [26])
20: Plant response rating, Corn (corn [2]; [23]) | Plant response rating, Corn (corn [13]; [25]) | Plant response rating, Kochia (kochia [16]; [25])

C[C@H]1CN(C(=O)c2cccc(-n3cncn3)c2)c2cccc(C#N)c2O1 [Compound 46]
100: Plant response rating, Foxtail, Giant (foxtail, giant [3]; [24]) | Plant response rating, Goosegrass (goosegrass [4]; [24]) | Plant response rating, Soybean (soybean [21]; [26]) | Plant response rating, Galium (galium; [26])
60: Plant response rating, Blackgrass (blackgrass [1]; [23]) | Plant response rating, Foxtail, Giant (foxtail, giant [3]; [23]) | Plant response rating, Goosegrass (goosegrass [4]; [23]) | Plant response rating, Ryegrass, Italian (ryegrass, Italian [9]; [23]) | Plant response rating, Soybean (soybean [10]; [24]) | Plant response rating, Goosegrass (goosegrass [15]; [26]) | Plant response rating, Galium (galium; [25])
0: Plant response rating, Corn (corn [2]; [23]) | Plant response rating, Corn (corn [2]; [24]) | Plant response rating, Oat, Wild (oat, wild [6]; [23]) | Plant response rating, Ragweed (ragweed [8]; [23]) | Plant response rating, Ragweed (ragweed [8]; [24]) | Plant response rating, Wheat (wheat [11]; [23]) | Plant response rating, Oat, Wild (oat, wild [17]; [25]) | Plant response rating, Ragweed (ragweed [19]; [25]) | Plant response rating, Ragweed (ragweed [19]; [26]) | Plant response rating, Barnyardgrass (barnyardgrass) | Plant response rating, Ducksalad (ducksalad) | Plant response rating, Rice (rice) | Plant response rating, Sedge, Umbrella (sedge, umbrella)
90: Plant response rating, Blackgrass (blackgrass [1]; [24]) | Plant response rating, Pigweed, Palmer (pigweed, palmer [7]; [24]) | Plant response rating, Foxtail, Giant (foxtail, giant [14]; [26]) | Plant response rating, Soybean (soybean [21]; [25])
70: Plant response rating, Oat, Wild (oat, wild [6]; [24]) | Plant response rating, Blackgrass (blackgrass [12]; [26])
30: Plant response rating, Wheat (wheat [11]; [24]) | Plant response rating, Blackgrass (blackgrass [12]; [25]) | Plant response rating, Corn (corn [13]; [26])
20: Plant response rating, Soybean (soybean [10]; [23]) | Plant response rating, Foxtail, Giant (foxtail, giant [14]; [25]) | Plant response rating, Kochia (kochia [16]; [25]) | Plant response rating, Pigweed, Palmer (pigweed, palmer [18]; [25])
10: Plant response rating, Corn (corn [13]; [25]) | Plant response rating, Goosegrass (goosegrass [15]; [25]) | Plant response rating, Wheat (wheat [22]; [25])
80: Plant response rating, Ryegrass, Italian (ryegrass, Italian [9]; [24]) | Plant response rating, Kochia (kochia [16]; [26]) | Plant response rating, Ryegrass, Italian (ryegrass, Italian [20]; [26])
50: Plant response rating, Pigweed, Palmer (pigweed, palmer [18]; [26]) | Plant response rating, Wheat (wheat [22]; [26])
40: Plant response rating, Kochia (kochia [5]; [24]) | Plant response rating, Pigweed, Palmer (pigweed, palmer [7]; [23]) | Plant response rating, Oat, Wild (oat, wild [17]; [26]) | Plant response rating, Ryegrass, Italian (ryegrass, Italian [20]; [25])

CCc1cccc2c1OC(C)CN2C(=O)c1cccc(-n2cncn2)c1 (stereo not drawn) [Compound 43]
30: Plant response rating, Corn (corn [13]; [26]) | Plant response rating, Kochia (kochia [16]; [26]) | Plant response rating, Ryegrass, Italian (ryegrass, Italian [20]; [25]) | Plant response rating, Wheat (wheat [22]; [26]) | Plant response rating, Galium (galium; [25])
0: Plant response rating, Kochia (kochia [5]; [23]) | Plant response rating, Kochia (kochia [5]; [24]) | Plant response rating, Pigweed, Palmer (pigweed, palmer [7]; [23]) | Plant response rating, Ragweed (ragweed [8]; [23]) | Plant response rating, Wheat (wheat [11]; [23]) | Plant response rating, Blackgrass (blackgrass [12]; [25]) | Plant response rating, Blackgrass (blackgrass [12]; [26]) | Plant response rating, Goosegrass (goosegrass [15]; [25]) | Plant response rating, Oat, Wild (oat, wild [17]; [25]) | Plant response rating, Ragweed (ragweed [19]; [25]) | Plant response rating, Ragweed (ragweed [19]; [26]) | Plant response rating, Barnyardgrass (barnyardgrass) | Plant response rating, Ducksalad (ducksalad) | Plant response rating, Rice (rice) | Plant response rating, Sedge, Umbrella (sedge, umbrella)
80: Plant response rating, Pigweed, Palmer (pigweed, palmer [7]; [24]) | Plant response rating, Soybean (soybean [21]; [25])
60: Plant response rating, Foxtail, Giant (foxtail, giant [3]; [23]) | Plant response rating, Goosegrass (goosegrass [4]; [23]) | Plant response rating, Ryegrass, Italian (ryegrass, Italian [9]; [23]) | Plant response rating, Ryegrass, Italian (ryegrass, Italian [20]; [26]) | Plant response rating, Galium (galium; [26])
40: Plant response rating, Blackgrass (blackgrass [1]; [24]) | Plant response rating, Soybean (soybean [10]; [24]) | Plant response rating, Goosegrass (goosegrass [15]; [26])
70: Plant response rating, Foxtail, Giant (foxtail, giant [14]; [26])
10: Plant response rating, Blackgrass (blackgrass [1]; [23]) | Plant response rating, Corn (corn [2]; [23]) | Plant response rating, Wheat (wheat [11]; [24]) | Plant response rating, Corn (corn [13]; [25]) | Plant response rating, Foxtail, Giant (foxtail, giant [14]; [25]) | Plant response rating, Kochia (kochia [16]; [25]) | Plant response rating, Wheat (wheat [22]; [25])
20: Plant response rating, Corn (corn [2]; [24]) | Plant response rating, Oat, Wild (oat, wild [6]; [23]) | Plant response rating, Ragweed (ragweed [8]; [24]) | Plant response rating, Oat, Wild (oat, wild [17]; [26]) | Plant response rating, Pigweed, Palmer (pigweed, palmer [18]; [26])
100: Plant response rating, Soybean (soybean [21]; [26])
90: Plant response rating, Foxtail, Giant (foxtail, giant [3]; [24]) | Plant response rating, Goosegrass (goosegrass [4]; [24]) | Plant response rating, Oat, Wild (oat, wild [6]; [24]) | Plant response rating, Ryegrass, Italian (ryegrass, Italian [9]; [24])
50: Plant response rating, Pigweed, Palmer (pigweed, palmer [18]; [25])
